Test results as given in ChEMBL document CHEMBL1126140, “Nucleosides and nucleotides. 103. 2-Alkynyladenosines: a novel class of selective adenosine A2 receptor agonists with potent antihypertensive effects” (J Med Chem, 1992).

What follows are compounds tested against T1, Adenosine receptor A1 (Rattus norvegicus, UniProt P25099) (assay: Binding affinity against adenosine A1 receptor in rat brain membranes using [3H]-CHA).
T1 sequence (P25099 whole entry): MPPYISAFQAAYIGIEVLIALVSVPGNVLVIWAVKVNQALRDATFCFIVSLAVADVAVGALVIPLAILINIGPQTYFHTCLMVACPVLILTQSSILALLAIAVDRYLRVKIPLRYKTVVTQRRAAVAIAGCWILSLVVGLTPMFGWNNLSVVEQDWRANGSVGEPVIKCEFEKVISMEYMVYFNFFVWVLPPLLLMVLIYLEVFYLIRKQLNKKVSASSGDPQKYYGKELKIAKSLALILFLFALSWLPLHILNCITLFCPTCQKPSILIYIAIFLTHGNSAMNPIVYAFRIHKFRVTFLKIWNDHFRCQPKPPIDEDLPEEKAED
Assay type: cell membranes

Ki [nM]	Compound
267	CCCCCCCCCCC#Cc1nc(N)c2ncn(C3O[C@H](CO)[C@@H](O)[C@H]3O)c2n1 (some centres not stated)

Each compound was assayed on Rattus norvegicus (assay: Dose producing 10% decrease of heart rate in anesthetized rats (SHR)).
Assay type: functional

Compound	ED10 [µg/kg]
CCCCCCCCc1nc(N)c2ncn(C3O[C@H](CO)[C@@H](O)[C@H]3O)c2n1 (some centres not stated)	> 100
C[Si](C)(C)C#Cc1nc(N)c2ncn([C@@H]3O[C@H](CO)[C@@H](O)[C@H]3O)c2n1	> 100
CCNC(=O)[C@H]1O[C@@H](n2cnc3c(N)ncnc32)[C@H](O)[C@@H]1O [NECA]	0.35
CCc1nc(N)c2ncn(C3O[C@H](CO)[C@@H](O)[C@H]3O)c2n1 (some centres not stated)	> 100
CCCCCCC#Cc1ncnc2c1ncn2C1O[C@H](CO)[C@@H](O)[C@H]1O (some centres not stated)	> 100
CCCC#Cc1nc(N)c2ncn([C@@H]3O[C@H](CO)[C@@H](O)[C@H]3O)c2n1	41.5
CCC#Cc1nc(N)c2ncn([C@@H]3O[C@H](CO)[C@@H](O)[C@H]3O)c2n1	18.4
CCCCCC/C=C\c1nc(N)c2ncn(C3O[C@H](CO)[C@@H](O)[C@H]3O)c2n1 (some centres not stated)	> 100
Nc1nc(Nc2ccccc2)nc2c1ncn2[C@@H]1O[C@H](CO)[C@@H](O)[C@H]1O	> 100
CC(=O)c1nc(N)c2ncn(C3O[C@H](CO)[C@@H](O)[C@H]3O)c2n1 (some centres not stated)	50.3
Nc1nc(C#CCO)nc2c1ncn2[C@@H]1O[C@H](CO)[C@@H](O)[C@H]1O	1.19
CCCCCCC#Cc1nc(N)c2ncn([C@@H]3O[C@H](CO)[C@@H](O)[C@H]3O)c2n1	> 100
CCCCCCCCC#Cc1nc(N)c2ncn([C@@H]3O[C@H](CO)[C@@H](O)[C@H]3O)c2n1	> 100
CCCCCCC#Cc1nc(N)c2[nH]cnc2n1	> 100
CCCCCCCCCCC#Cc1nc(N)c2ncn(C3O[C@H](CO)[C@@H](O)[C@H]3O)c2n1 (some centres not stated)	> 100

What follows are compounds tested against T2, Adenosine A2 receptor (Rattus norvegicus, UniProt P29276+P30543).
Description: Binding affinity against adenosine A2 receptor in rat striatal membranes using [3H]NECA as radioligand

Ki [nM]	Compound
630	C[Si](C)(C)C#Cc1nc(N)c2ncn([C@@H]3O[C@H](CO)[C@@H](O)[C@H]3O)c2n1
> 567	CCc1nc(N)c2ncn(C3O[C@H](CO)[C@@H](O)[C@H]3O)c2n1 (some centres not stated)
7.5	CCCC#Cc1nc(N)c2ncn([C@@H]3O[C@H](CO)[C@@H](O)[C@H]3O)c2n1
21.2	CCC#Cc1nc(N)c2ncn([C@@H]3O[C@H](CO)[C@@H](O)[C@H]3O)c2n1
150	CCCCCC/C=C\c1nc(N)c2ncn(C3O[C@H](CO)[C@@H](O)[C@H]3O)c2n1 (some centres not stated)
107	Nc1nc(Nc2ccccc2)nc2c1ncn2[C@@H]1O[C@H](CO)[C@@H](O)[C@H]1O
> 567	CC(=O)c1nc(N)c2ncn(C3O[C@H](CO)[C@@H](O)[C@H]3O)c2n1 (some centres not stated)
20.5	Nc1nc(C#CCO)nc2c1ncn2[C@@H]1O[C@H](CO)[C@@H](O)[C@H]1O
12.1	CCCCCCC#Cc1nc(N)c2ncn([C@@H]3O[C@H](CO)[C@@H](O)[C@H]3O)c2n1

Continued, compound first:

Compound	Ki [nM]
CCCCCCCCc1nc(N)c2ncn(C3O[C@H](CO)[C@@H](O)[C@H]3O)c2n1 (some centres not stated)	> 567
CCCCCCC#Cc1ncnc2c1ncn2C1O[C@H](CO)[C@@H](O)[C@H]1O (some centres not stated)	> 567
CCCCCCCCC#Cc1nc(N)c2ncn([C@@H]3O[C@H](CO)[C@@H](O)[C@H]3O)c2n1	32.8
CCCCCCC#Cc1nc(N)c2[nH]cnc2n1	> 567

What follows are compounds tested on Rattus norvegicus (assay: Dose producing 30% decrease of blood pressure in anesthetized rats (SHR)).
Assay type: functional

Compound	ED30 [µg/kg]
CCCCCCCCc1nc(N)c2ncn(C3O[C@H](CO)[C@@H](O)[C@H]3O)c2n1 (some centres not stated)	> 100
C[Si](C)(C)C#Cc1nc(N)c2ncn([C@@H]3O[C@H](CO)[C@@H](O)[C@H]3O)c2n1	1.15
CCNC(=O)[C@H]1O[C@@H](n2cnc3c(N)ncnc32)[C@H](O)[C@@H]1O [NECA]	0.19
CCc1nc(N)c2ncn(C3O[C@H](CO)[C@@H](O)[C@H]3O)c2n1 (some centres not stated)	> 100
CCCCCCC#Cc1ncnc2c1ncn2C1O[C@H](CO)[C@@H](O)[C@H]1O (some centres not stated)	> 100
CCCC#Cc1nc(N)c2ncn([C@@H]3O[C@H](CO)[C@@H](O)[C@H]3O)c2n1	0.18
CCC#Cc1nc(N)c2ncn([C@@H]3O[C@H](CO)[C@@H](O)[C@H]3O)c2n1	0.48
CCCCCC/C=C\c1nc(N)c2ncn(C3O[C@H](CO)[C@@H](O)[C@H]3O)c2n1 (some centres not stated)	5
Nc1nc(Nc2ccccc2)nc2c1ncn2[C@@H]1O[C@H](CO)[C@@H](O)[C@H]1O	5.82
CC(=O)c1nc(N)c2ncn(C3O[C@H](CO)[C@@H](O)[C@H]3O)c2n1 (some centres not stated)	46.7
Nc1nc(C#CCO)nc2c1ncn2[C@@H]1O[C@H](CO)[C@@H](O)[C@H]1O	0.95
CCCCCCC#Cc1nc(N)c2ncn([C@@H]3O[C@H](CO)[C@@H](O)[C@H]3O)c2n1	0.34
CCCCCCCCC#Cc1nc(N)c2ncn([C@@H]3O[C@H](CO)[C@@H](O)[C@H]3O)c2n1	0.46
CCCCCCC#Cc1nc(N)c2[nH]cnc2n1	> 100
CCCCCCCCCCC#Cc1nc(N)c2ncn(C3O[C@H](CO)[C@@H](O)[C@H]3O)c2n1 (some centres not stated)	2.05

Each compound was assayed against T2, Adenosine A2 receptor (assay: Binding affinity against adenosine A2 receptor in rat striatal membranes using [3H]NECA).
Assay type: cell membranes, Striatum, Membrane

Ki [nM]	Compound
44.6	CCCCCCCCCCC#Cc1nc(N)c2ncn(C3O[C@H](CO)[C@@H](O)[C@H]3O)c2n1 (some centres not stated)

These compounds were tested against T1, Adenosine receptor A1.
Description: Binding affinity against adenosine A1 receptor in rat brain membranes using [3H]CHA as radioligand

Ki [nM]	Compound
69.8	C[Si](C)(C)C#Cc1nc(N)c2ncn([C@@H]3O[C@H](CO)[C@@H](O)[C@H]3O)c2n1
> 567	CCc1nc(N)c2ncn(C3O[C@H](CO)[C@@H](O)[C@H]3O)c2n1 (some centres not stated)
154	CCCC#Cc1nc(N)c2ncn([C@@H]3O[C@H](CO)[C@@H](O)[C@H]3O)c2n1
186	CCC#Cc1nc(N)c2ncn([C@@H]3O[C@H](CO)[C@@H](O)[C@H]3O)c2n1
> 567	CCCCCC/C=C\c1nc(N)c2ncn(C3O[C@H](CO)[C@@H](O)[C@H]3O)c2n1 (some centres not stated)
> 567	CC(=O)c1nc(N)c2ncn(C3O[C@H](CO)[C@@H](O)[C@H]3O)c2n1 (some centres not stated)
10.1	Nc1nc(C#CCO)nc2c1ncn2[C@@H]1O[C@H](CO)[C@@H](O)[C@H]1O
202	CCCCCCC#Cc1nc(N)c2ncn([C@@H]3O[C@H](CO)[C@@H](O)[C@H]3O)c2n1

More lines, now with the values behind:

Compound	Ki [nM]
CCCCCCCCc1nc(N)c2ncn(C3O[C@H](CO)[C@@H](O)[C@H]3O)c2n1 (some centres not stated)	> 567
CCCCCCC#Cc1ncnc2c1ncn2C1O[C@H](CO)[C@@H](O)[C@H]1O (some centres not stated)	> 567
CCCCCCCCC#Cc1nc(N)c2ncn([C@@H]3O[C@H](CO)[C@@H](O)[C@H]3O)c2n1	232
CCCCCCC#Cc1nc(N)c2[nH]cnc2n1	> 567
